Laboratory results: the supplement of paper PMC10307832

Legend:
Assay in all cases: relative viability (nuclei count vs DMSO), 5 days (fraction); higher = more cells survive
IDH-C35 + Crizotinib = compound: Cc1ccccc1C(C(=O)NC1CCCCC1)N(C(=O)Cn1ccnc1C)c1cccc(F)c1 [IDH-C35] + C[C@@H](Oc1cc(-c2cnn(C3CCNCC3)c2)cnc1N)c1c(Cl)ccc(F)c1Cl [Crizotinib] (partner 1 µM)
In short: (§1)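 Relative viability divides the nuclei count in treated wells by that in vehicle wells. Lung cancer cell lines were seeded in 1536-well plates, dosed by pin tool the next day, and fixed and stained after 5 days in one step with final 0.05% Triton X-100, 1% formaldehyde and 1 ug/ml Hoechst. Dosing was a single drug or a fixed anchor-drug dose plus five library-drug doses (not always all listed) in √10 steps, and values are medians of duplicate plates imaged at 4×.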

IDH-C35 + Linsitinib = compound: Cc1ccccc1C(C(=O)NC1CCCCC1)N(C(=O)Cn1ccnc1C)c1cccc(F)c1 [IDH-C35] + C[C@]1(O)C[C@@H](c2nc(-c3ccc4ccc(-c5ccccc5)nc4c3)c3c(N)nccn32)C1 [Linsitinib] (partner 1 µM)
In short: as §1

[1] = compound: CC1=C(C(=NN1)C)CC2=C(C3=C(S2)N(C(=O)N(C3=O)C)CC(C)C)C(=O)N4C[C@@H](CO4)O + CC1(C)CCC(c2ccc(Cl)cc2)=C(CN2CCN(c3ccc(C(=O)NS(=O)(=O)c4ccc(N[C@H](CCN5CCOCC5)CSc5ccccc5)c(S(=O)(=O)C(F)(F)F)c4)cc3)CC2)C1 [Navitoclax] (partner 0.5 µM)
In short: as §1

[2] = compound: CC1=C(C(=NN1)C)CC2=C(C3=C(S2)N(C(=O)N(C3=O)C)CC(C)C)C(=O)N4C[C@@H](CO4)O + CC(=O)c1c(C)c2cnc(Nc3ccc(N4CCNCC4)cn3)nc2n(C2CCCC2)c1=O [Palbociclib] (partner 0.5 µM)
In short: as §1

Cell Line	relative viability (IDH-C35 + Crizotinib; first compound 0.08 µM)	relative viability (IDH-C35 + Crizotinib; first compound 0.253 µM)	relative viability (IDH-C35 + Crizotinib; first compound 0.8 µM)	relative viability (IDH-C35 + Crizotinib; first compound 2.53 µM)	relative viability (IDH-C35 + Crizotinib; first compound 8 µM)	relative viability (IDH-C35 + Linsitinib; first compound 0.08 µM)	relative viability (IDH-C35 + Linsitinib; first compound 0.253 µM)	relative viability (IDH-C35 + Linsitinib; first compound 0.8 µM)	relative viability (IDH-C35 + Linsitinib; first compound 2.53 µM)	relative viability (IDH-C35 + Linsitinib; first compound 8 µM)	relative viability ([1]; first compound 0.0025 µM)	relative viability ([1]; first compound 0.007906 µM)	relative viability ([1]; first compound 0.025 µM)	relative viability ([1]; first compound 0.07906 µM)	relative viability ([1]; first compound 0.25 µM)	relative viability ([2]; first compound 0.0025 µM)	relative viability ([2]; first compound 0.007906 µM)	relative viability ([2]; first compound 0.025 µM)	relative viability ([2]; first compound 0.07906 µM)	relative viability ([2]; first compound 0.25 µM)
NCI-H2347	0.71	0.695	0.713	0.762	0.619	0.973	0.932	1.01	0.987	0.918	0.86	0.691	0.828	0.69	0.771	0.426	0.4	0.431	0.36	0.445
NCI-H2405	0.837	0.841	0.852	0.829	0.797	0.974	0.957	0.928	–	0.907	0.795	0.652	–	0.983	0.864	0.529	0.531	0.54	0.473	0.563
NCI-H3122	0.292	0.299	0.295	0.252	0.27	0.991	0.971	0.972	1.01	1.02	1.02	1.04	0.996	1.01	0.995	0.165	0.241	0.205	0.176	0.209
PC-3 [JPC-3]	1.01	0.919	0.929	1.03	0.965	0.939	0.985	0.96	0.969	0.936	0.898	0.795	0.83	0.827	0.906	0.528	0.502	0.539	0.533	0.524
PC-14	0.886	0.845	0.837	0.88	0.835	0.967	0.939	0.938	0.95	0.862	1.02	1.09	1.02	1	1.03	0.453	0.45	0.493	0.468	0.646
RERF-LC-KJ	0.887	0.822	0.794	0.904	0.763	0.873	0.861	0.871	0.906	0.904	1.18	0.99	1.01	0.713	0.897	1.12	1.11	1.04	1.06	1.12
SK-LU-1	0.881	0.797	0.948	0.904	0.881	0.999	1.03	1.07	1.22	1.1	0.717	0.662	0.528	0.744	0.545	0.375	0.349	0.294	0.278	0.281
SK-MES-1	1.05	0.953	0.912	0.937	0.986	1.15	0.986	1.05	0.957	0.99	1.3	1.42	1.12	1.28	1.33	0.358	0.336	0.319	0.329	0.333
SW 1573	0.759	0.889	0.798	1.01	0.713	0.78	0.752	0.832	0.821	0.678	0.978	1.1	0.927	0.929	1.12	0.469	0.439	0.42	0.407	0.47
